Measured values from EPA's ToxValDB 9.5 (doi:10.2903/j.efsa.2010.1872).
Values after ≈ are worked out from the molar mass of the structure shown.

Assays:
[1] = test system: Colinus virginianus
[2] = test system: Pimephales promelas
[3] = test system: Bibionidae; conditions: chronic/long-term; duration: 28 days; development
[4] = test system: Folsomia candida; conditions: chronic/long-term; duration: 28 days; mortality
[5] = test system: Anas platyrhynchos; conditions: oral, mortality
[6] = test system: Typhlodromus pyri; conditions: chronic/long-term; mortality
[7] = test system: Daphnia magna; conditions: chronic/long-term; duration: 21 days
[8] = test system: Tagia sp.; conditions: acute, duration: 14 days
[9] = test system: Rattus norvegicus
[10] = test system: Apis mellifera; conditions: acute; oral; unspecified; mortality
[11] = test system: Typhlodromus pyri; experiment: LR50; higher = less toxic; conditions: not reported; mortality
[12] = reproduction developmental, reproduction

CC1(C)[C@H](C(=O)O[C@H](C#N)c2cccc(Oc3ccccc3)c2)[C@@H]1/C=C\C(=O)OC(C(F)(F)F)C(F)(F)F [Acrinathrin]
LD50 ([1]; acute, oral, mortality): > 2250 mg/kg-day
NOEC [1, 12]: 19.9 mg/kg-day
NOEC ([1]; short-term, oral, diet, mortality): 325 mg/kg-day
LC50 ([2]; acute, duration: 96 hours, mortality): 1.7 ng/mL (≈ 3.14 nM)
NOEC ([2]; chronic/long-term, duration: 21 days): 1.1e-05 mg/L
NOEC [3]: 3.1e-05 mg/L
NOEC [4]: < 1 mg/kg
LD50 ([5]; acute, unspecified): > 2000 mg/kg-day
NOEC ([5]; short-term, feed): 173 mg/kg-day
NOEC [6]: 0.00068 g/ha
NOEC [7]: 3.2e-06 mg/L
NOEC [8]: 1.6 mg/kg
LC50 ([8]; mortality): > 1000 mg/kg
NOAEL ([9]; acute, neurology): 1 mg/kg-day
LD50 ([9]; acute, oral, mortality): > 5000 mg/kg-day
NOAEL [9, 12]: 9.4 mg/kg-day
NOEL [9, 12]: 2.5 mg/kg-day
LD50 [10]: 0.077 µg/piece
LR50 [11]: 0.006 g/ha
